# Laboratory results taken from BindingDB's records for doi:10.1021/acs.jnatprod.1c00014 (Jiangsu University of Science and Technology, 2021).
# Target: Maltase-glucoamylase (Homo sapiens, UniProt O43451)
# Assay: Inhibition of alpha-glucosidase (unknown origin) preincubated for 5 mins followed by addition of pNPG substrate and measured after 30 mins by spectrophotometric method
# Maltase-glucoamylase, sequence (O43451 whole entry): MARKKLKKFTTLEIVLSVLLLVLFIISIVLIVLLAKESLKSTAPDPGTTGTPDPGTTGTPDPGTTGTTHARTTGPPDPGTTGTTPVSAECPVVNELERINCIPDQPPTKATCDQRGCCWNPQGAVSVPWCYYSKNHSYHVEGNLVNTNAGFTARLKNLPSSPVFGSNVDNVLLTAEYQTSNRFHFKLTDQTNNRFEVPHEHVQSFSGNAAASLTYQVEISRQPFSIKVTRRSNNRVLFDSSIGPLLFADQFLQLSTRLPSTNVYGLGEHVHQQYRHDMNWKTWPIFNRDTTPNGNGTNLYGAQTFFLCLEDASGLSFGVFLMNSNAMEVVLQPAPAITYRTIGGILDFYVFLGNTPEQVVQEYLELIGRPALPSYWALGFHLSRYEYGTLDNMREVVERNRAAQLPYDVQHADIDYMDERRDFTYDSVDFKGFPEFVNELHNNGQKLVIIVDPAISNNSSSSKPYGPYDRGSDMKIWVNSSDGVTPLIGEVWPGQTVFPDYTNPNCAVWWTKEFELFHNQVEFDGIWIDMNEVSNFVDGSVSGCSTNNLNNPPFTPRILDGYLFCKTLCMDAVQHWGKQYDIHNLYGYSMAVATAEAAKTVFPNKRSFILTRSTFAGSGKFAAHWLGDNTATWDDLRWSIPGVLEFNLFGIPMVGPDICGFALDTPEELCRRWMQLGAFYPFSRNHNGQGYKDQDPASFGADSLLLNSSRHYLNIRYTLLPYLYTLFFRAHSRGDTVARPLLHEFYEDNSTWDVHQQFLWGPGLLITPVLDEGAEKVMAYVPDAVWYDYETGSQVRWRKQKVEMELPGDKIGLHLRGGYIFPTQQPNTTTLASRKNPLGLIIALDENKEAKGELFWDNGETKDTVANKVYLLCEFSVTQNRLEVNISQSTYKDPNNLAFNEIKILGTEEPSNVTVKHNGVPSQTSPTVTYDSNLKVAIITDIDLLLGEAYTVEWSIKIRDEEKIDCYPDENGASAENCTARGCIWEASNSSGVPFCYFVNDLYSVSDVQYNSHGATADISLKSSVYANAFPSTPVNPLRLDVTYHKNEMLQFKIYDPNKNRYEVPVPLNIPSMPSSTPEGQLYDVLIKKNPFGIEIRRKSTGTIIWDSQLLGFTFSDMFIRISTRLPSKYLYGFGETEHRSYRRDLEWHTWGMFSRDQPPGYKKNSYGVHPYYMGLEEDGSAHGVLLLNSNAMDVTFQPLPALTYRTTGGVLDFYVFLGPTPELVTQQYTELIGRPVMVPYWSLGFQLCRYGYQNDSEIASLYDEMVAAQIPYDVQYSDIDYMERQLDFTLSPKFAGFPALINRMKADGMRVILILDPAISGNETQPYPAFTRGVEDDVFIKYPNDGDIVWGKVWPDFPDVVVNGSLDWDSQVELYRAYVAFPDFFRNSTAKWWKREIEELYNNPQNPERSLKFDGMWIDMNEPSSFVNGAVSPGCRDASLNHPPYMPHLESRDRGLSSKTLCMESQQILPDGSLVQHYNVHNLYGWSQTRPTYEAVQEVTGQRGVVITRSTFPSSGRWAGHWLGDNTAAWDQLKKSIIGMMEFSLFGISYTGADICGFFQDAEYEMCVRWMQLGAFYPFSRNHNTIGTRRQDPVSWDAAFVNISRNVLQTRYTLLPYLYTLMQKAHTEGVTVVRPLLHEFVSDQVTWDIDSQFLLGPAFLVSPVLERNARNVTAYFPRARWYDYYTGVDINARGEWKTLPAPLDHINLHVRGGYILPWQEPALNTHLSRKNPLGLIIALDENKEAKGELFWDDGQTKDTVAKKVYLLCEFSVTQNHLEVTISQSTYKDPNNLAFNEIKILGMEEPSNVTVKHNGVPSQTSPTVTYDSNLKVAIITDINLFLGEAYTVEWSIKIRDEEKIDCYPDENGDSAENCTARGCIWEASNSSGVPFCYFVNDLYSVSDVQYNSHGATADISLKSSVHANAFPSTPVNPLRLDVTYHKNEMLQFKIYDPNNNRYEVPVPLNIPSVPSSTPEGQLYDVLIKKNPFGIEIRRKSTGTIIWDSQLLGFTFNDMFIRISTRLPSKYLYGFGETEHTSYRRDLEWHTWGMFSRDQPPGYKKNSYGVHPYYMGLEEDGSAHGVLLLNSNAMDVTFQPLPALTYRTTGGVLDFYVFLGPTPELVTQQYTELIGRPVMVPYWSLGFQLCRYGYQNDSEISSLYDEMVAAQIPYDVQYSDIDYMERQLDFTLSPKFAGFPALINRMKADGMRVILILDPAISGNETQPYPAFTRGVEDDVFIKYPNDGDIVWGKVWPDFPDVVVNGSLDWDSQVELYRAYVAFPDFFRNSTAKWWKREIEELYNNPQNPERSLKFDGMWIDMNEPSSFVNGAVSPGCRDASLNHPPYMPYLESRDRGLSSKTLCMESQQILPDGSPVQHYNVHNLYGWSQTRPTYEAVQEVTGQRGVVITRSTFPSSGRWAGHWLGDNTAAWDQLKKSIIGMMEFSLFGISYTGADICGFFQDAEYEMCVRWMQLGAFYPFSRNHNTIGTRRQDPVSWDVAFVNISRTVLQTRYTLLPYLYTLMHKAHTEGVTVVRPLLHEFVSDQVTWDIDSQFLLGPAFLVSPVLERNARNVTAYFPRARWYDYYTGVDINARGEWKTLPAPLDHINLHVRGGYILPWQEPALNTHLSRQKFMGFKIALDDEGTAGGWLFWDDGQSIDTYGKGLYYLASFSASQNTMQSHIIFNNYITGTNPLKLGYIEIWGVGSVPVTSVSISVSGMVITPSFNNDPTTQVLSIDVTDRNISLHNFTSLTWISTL
row,IC50 [nM],SMILES
1,40600,COc1ccc(-c2oc3cc(OC)cc(OC)c3c(=O)c2OCCCCCN2C[C@H](O)[C@@H](O)[C@H](O)[C@H]2CO)cc1
2,1780,COc1ccc(-c2oc3cc(OC)cc(OC)c3c(=O)c2OCCCCCCCCN2C[C@H](O)[C@@H](O)[C@H](O)[C@H]2CO)cc1
3,240,COc1ccc(-c2oc3cc(OC)cc(OC)c3c(=O)c2OCCCCCCCCCCCN2C[C@H](O)[C@@H](O)[C@H](O)[C@H]2CO)cc1
